Like-named read-outs stand apart in the source and are kept apart here.
Tests used:
[1] = target: T1, Trypsin (Bos taurus, UniProt P00760); test: Anti-trypsin activity (hydrolysis of TAME); assay type: biochemical; settings: molar concentration inhibiting 50% of TAME hydrolysis; read-out: ID50 trypsin
T1 sequence (P00760 24-246): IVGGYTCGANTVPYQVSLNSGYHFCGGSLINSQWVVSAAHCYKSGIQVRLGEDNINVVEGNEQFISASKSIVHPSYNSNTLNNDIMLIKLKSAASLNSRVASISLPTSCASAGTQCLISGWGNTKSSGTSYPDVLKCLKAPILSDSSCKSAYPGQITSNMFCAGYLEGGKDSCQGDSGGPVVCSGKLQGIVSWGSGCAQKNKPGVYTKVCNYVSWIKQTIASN
Procedure: (§1) The anti-trypsin, anti-plasmin, anti-kallikrein and anti-thrombin activities were determined according to the method of Muramatsu et al. [M. Muramatus, T. Onishi, S. Makino, Y. Hayashi and S. Fujii, J. of Biochem., 58, 214 (1965)]. The data summarized in Table 1 are expressed in terms of molar concentration (ID50) of the test compound which inhibits 50% of the activity of each enzyme to hydrolyze TAME (tosylalginine methyl ester). The compound No. corresponds to the compound number shown in Examples.

[2] = target: Plasmin (Homo sapiens, UniProt P00747); test: Anti-plasmin activity (hydrolysis of TAME); assay type: biochemical; settings: for IC50: molar concentration inhibiting 50% of TAME hydrolysis, read-out: ID50 plasmin
Sequence of Plasmin (P00747 581-810 limits assumed, species assumed): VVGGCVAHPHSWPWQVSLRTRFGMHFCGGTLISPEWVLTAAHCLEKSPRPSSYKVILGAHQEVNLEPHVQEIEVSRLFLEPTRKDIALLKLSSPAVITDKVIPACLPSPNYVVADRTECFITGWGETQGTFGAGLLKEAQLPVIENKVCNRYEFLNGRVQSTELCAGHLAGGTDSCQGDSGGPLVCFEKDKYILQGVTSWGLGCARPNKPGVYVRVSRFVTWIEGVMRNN
Sequence of Plasmin (P00747 97-580 partner limits assumed, species assumed): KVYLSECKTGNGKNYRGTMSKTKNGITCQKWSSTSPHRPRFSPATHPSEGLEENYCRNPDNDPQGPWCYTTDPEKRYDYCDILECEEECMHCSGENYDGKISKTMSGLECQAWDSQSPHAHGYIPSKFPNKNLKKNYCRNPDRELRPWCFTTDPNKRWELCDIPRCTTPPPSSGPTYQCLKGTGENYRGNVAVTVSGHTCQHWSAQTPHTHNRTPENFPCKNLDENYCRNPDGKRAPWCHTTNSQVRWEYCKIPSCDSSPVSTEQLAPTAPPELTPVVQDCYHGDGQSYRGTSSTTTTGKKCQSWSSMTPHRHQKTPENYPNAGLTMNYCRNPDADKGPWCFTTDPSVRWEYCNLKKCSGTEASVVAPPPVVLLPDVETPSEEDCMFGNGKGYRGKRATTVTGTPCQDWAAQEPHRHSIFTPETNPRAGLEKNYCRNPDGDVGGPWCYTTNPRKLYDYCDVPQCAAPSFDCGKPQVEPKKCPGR
Procedure: The anti-trypsin, anti-plasmin, anti-kallikrein and anti-thrombin activities were determined according to the method of Muramatsu et al. [M. Muramatus, T. Onishi, S. Makino, Y. Hayashi and S. Fujii, J. of Biochem., 58, 214 (1965)]. […] The compound No. corresponds to the compound number shown in Examples.

[3] = target: T2, C1r (Homo sapiens, UniProt P00736); test: biochemical; settings: read-out: ID50 C1r (Anti-C1 activity)
T2 sequence (P00736 464-705 limits assumed): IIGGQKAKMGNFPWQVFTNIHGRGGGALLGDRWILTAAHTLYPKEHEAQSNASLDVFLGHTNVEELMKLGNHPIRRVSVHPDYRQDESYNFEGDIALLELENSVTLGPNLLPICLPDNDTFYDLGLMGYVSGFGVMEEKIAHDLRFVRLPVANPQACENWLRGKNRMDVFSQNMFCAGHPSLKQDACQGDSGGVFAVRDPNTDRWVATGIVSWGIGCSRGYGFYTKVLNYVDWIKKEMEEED
T2 sequence (P00736 18-463 partner limits assumed): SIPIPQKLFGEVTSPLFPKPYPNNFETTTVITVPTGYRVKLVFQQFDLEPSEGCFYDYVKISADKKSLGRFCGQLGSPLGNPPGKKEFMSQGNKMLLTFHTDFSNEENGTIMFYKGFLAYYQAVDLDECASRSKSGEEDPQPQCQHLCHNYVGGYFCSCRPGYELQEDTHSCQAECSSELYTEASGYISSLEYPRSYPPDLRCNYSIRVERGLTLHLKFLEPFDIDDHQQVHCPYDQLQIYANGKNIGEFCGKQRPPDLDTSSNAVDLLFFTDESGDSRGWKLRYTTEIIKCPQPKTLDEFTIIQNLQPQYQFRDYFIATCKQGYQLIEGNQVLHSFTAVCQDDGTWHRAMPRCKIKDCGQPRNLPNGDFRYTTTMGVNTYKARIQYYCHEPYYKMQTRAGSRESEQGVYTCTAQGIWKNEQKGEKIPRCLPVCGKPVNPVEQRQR

[4] = test system: complement; test: Inhibition of complement mediated hemolysis; assay type: cell-based
Procedure: The complement mediated hemolysis is widely used as a means to determine the titration of complement. The principle of this method is based on the fact that hemolysis is caused by the activation of complement, when the latter is added to a complex (immune complex) of erythrocytes and the antibody thereof. The degree of hemolysis varies in proportion to the amount of complement added. Therefore, when a known amount of complement admixed with a C1 esterase inhibitor is used, the hemolysis must be suppressed in proportion to the inhibitory activity.
The anti-C1 esterase (C1r, C1s) activity was determined according to the method of Okamura et al. [K. Okamura, M. Muramatsu and B. Fujii, Biochem. Biophys. […] The figures in Table 2 have the following meanings: […]

[5] = target: Thrombin (Homo sapiens, UniProt P00734); test: biochemical; settings: read-out: ID50 thrombin
[6] = target: T3, C1s (Homo sapiens, UniProt P09871); test: Anti-C1s activity (hydrolysis of ATEE); assay type: biochemical; settings: molar concentration inhibiting 50% of ATEE hydrolysis; read-out: ID50 C1s (Anti-C1 activity)
T3 sequence (P09871 438-688 limits assumed): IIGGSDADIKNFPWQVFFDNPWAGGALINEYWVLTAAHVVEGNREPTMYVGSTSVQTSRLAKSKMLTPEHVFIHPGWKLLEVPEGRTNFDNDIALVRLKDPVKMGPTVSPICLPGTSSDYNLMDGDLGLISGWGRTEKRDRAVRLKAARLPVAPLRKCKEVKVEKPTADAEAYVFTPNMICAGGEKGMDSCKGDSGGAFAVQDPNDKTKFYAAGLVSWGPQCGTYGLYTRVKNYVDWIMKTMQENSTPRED
T3 sequence (P09871 16-437 partner limits assumed): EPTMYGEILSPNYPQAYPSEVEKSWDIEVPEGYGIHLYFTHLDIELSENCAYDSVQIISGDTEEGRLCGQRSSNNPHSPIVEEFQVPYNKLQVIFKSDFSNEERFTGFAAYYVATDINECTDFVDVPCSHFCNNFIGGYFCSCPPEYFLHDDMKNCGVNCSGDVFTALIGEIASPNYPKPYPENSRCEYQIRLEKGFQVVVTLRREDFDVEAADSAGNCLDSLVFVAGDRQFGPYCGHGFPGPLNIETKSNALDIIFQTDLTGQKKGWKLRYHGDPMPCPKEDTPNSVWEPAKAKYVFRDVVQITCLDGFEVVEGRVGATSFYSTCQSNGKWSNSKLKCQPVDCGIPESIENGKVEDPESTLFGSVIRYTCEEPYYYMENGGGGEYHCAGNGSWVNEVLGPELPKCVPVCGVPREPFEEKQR
Procedure: The anti-C1 esterase (C1r, C1s) activity was determined according to the method of Okamura et al. [K. Okamura, M. Muramatsu and B. Fujii, Biochem. Biophys. Acta, 295, 252-257 (1973)]. The inhibition of complement mediated hemolysis was determined according to the method of Baker et al. [B. R. Baker and E. H. Erickson, J. Med. Chem. 12, 408-414 (1969)]. The figures in Table 2 have the following meanings:
C1s: Molar concentration of the test compound which inhibits 50% of the ability of C1s to hydrolyse ATEE (acetyltyrosin ethyl ester) (ID50).

[7] = test system: Kallikrein; test: Anti-kallikrein activity (hydrolysis of TAME); assay type: biochemical; settings: molar concentration inhibiting 50% of TAME hydrolysis; read-out: ID50 kallikrein
Procedure: as §1

[8] = molar concentration inhibiting 50% of AAME hydrolysis
[9] = molar concentration inhibiting 50% of TAME hydrolysis

SMILES	IC50 [1]	IC50 [2]	IC50 [3, 8]	Inhibition of complement mediated hemolysis (%) ([4]; 1 × 10^-5)	Inhibition of complement mediated hemolysis (%) ([4]; 1 × 10^-6)	Inhibition of complement mediated hemolysis (%) ([4]; 1 × 10^-7)	IC50 [5, 9]	IC50 [6]	IC50 [7]	inhibition at 10 µM ([2]; figure in parentheses, at 1×10^-5 M, TAME, read-out: percentage inhibition of plasmin)	IC50 [3]	IC50 [5]
N=C(N)c1ccc2cc(OC(=O)c3ccc(CNC(=O)C(N)COCc4ccccc4)o3)ccc2c1 (stereo not shown) [compound 36]	200 nM	600 nM	500 nM	100%	100%	68%	300 nM	4000 nM	600 nM			
N=C(N)c1ccc2cc(OC(=O)c3ccc(CNC(=O)c4cnc5ccccc5c4)o3)ccc2c1 [compound 17]	800 nM	2000 nM	500 nM	100%	100%	93%	700 nM	2000 nM	1000 nM			
CNC(=N)Nc1ccc(C(=O)Oc2ccc3cc(C(=N)N)ccc3c2)o1 [compound 5]	300 nM	500 nM	1000 nM	100%	100%	96%	200 nM	300 nM	500 nM			
CN(C(=N)N)c1ccc(C(=O)Oc2ccc3cc(C(=N)N)ccc3c2)o1 [compound 4]	4000 nM		2000 nM	100%	100%	59%	8000 nM	300 nM	6000 nM	42%		
CN(C)Cc1ccc(C(=O)Oc2ccc3cc(C(=N)N)ccc3c2)o1 [compound 23]	500 nM	2000 nM	3000 nM	100%	95%	76%	4000 nM	2000 nM	3000 nM			
N=C(N)c1ccc2cc(OC(=O)c3ccc(CNC(=O)C4CCC(CN)CC4)o3)ccc2c1 (stereo not shown) [compound 38]	500 nM	400 nM	300 nM	100%	100%	98%	80 nM	3000 nM	300 nM			
N=C(N)c1ccc2cc(OC(=O)c3ccc(CNC(=O)OCc4ccccc4)o3)ccc2c1 [compound 19]	200 nM	300 nM	200 nM	97%	97%	93%	200 nM	300 nM	700 nM			
N=C(N)c1ccc2cc(OC(=O)c3ccc(CNC(=O)CCNC(=O)OCc4ccccc4)o3)ccc2c1 [compound 20]				100%	98%	43%						
N=C(N)Nc1ccc(C(=O)NCc2ccc(C(=O)Oc3ccc4cc(C(=N)N)ccc4c3)o2)cc1 [compound 15]	200 nM	300 nM		100%	100%	99%	600 nM	400 nM	400 nM		300 nM	
CN=C(NC)NCc1ccc(C(=O)Oc2ccc3cc(C(=N)N)ccc3c2)o1 [Compound No. 2, 6-amidino-2-naphthyl 5-(2,3-dimethyl)guanidinomethyl-furan-2-carboxylate]	2000 nM	800 nM	1000 nM	100%	100%	91%	900 nM	1000 nM				
N=C(N)c1ccc2cc(OC(=O)c3ccc(CNC4=NCCN4)o3)ccc2c1 [compound 11]	3000 nM	2000 nM	500 nM	100%	100%	43%	400 nM	500 nM	400 nM			
N=C(N)c1ccc2cc(OC(=O)c3ccc(CNC(=O)C(N)CCCCN)o3)ccc2c1 (stereo not shown) [compound 35]	8000 nM	3000 nM	2000 nM	100%	100%	71%		3000 nM	900 nM			3000 nM
CCN=C(NCC)NCc1ccc(C(=O)Oc2ccc3cc(C(=N)N)ccc3c2)o1 [compound 8]	2000 nM	800 nM	800 nM	100%	100%	98%	1000 nM	2000 nM	400 nM			
N=C(N)c1ccc2cc(OC(=O)c3ccc(CNC(=O)CCN)o3)ccc2c1 [compound 34]		2000 nM	500 nM	100%	100%	58%	500 nM	500 nM	300 nM			
